Assay results: the supplement of paper PMC10307832

Tests used:
Experiment in all cases: relative viability (nuclei count vs DMSO), 5 days (fraction); higher = more cells survive
[1] = compound: C1CC(C1)(C(=O)O)C(=O)O.[NH2-].[NH2-].[Pt+2] [Carboplatin]
Method in brief: (§1)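 Cells of lung cancer lines were placed in 1536-well plates and kept overnight at 37 °C. Pinning then delivered five library-drug doses (not always all listed), spaced by √10, onto plates anchored with vehicle, and the cells were left 5 days without changing medium. One step fixed, permeabilised and stained them with Hoechst, and MetaXpress counted nuclei in 4× images. Viability, as a median over plates, is treated-well nuclei divided by vehicle-well nuclei, with acceptance only at control CV below 25% and at least one doubling.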

[2] = compound: CC[C@H](C)N1C=C(C2=C(C=C(C=C21)C3=CN=C(C=C3)N4CCNCC4)C(=O)NCC5=C(C=C(NC5=O)C)C)C [GSK126]
Method in brief: as §1

[3] = compound: NS(=O)(=O)OC[C@@H]1C[C@@H](n2ccc3c(N[C@H]4CCc5ccccc54)ncnc32)C[C@@H]1O [MLN4924]
Method in brief: as §1

Cell Line EKVX has a relative viability ([1]; 0.08 µM) of 1.01, a relative viability ([1]; 0.253 µM) of 0.984 and a relative viability ([1]; 0.8 µM) of 0.99. For the same cell line, the relative viability ([1]; 2.53 µM) was 1.05, the relative viability ([1]; 8 µM) was 0.855 and the relative viability ([2]; 0.08 µM) was 1.02. For the same cell line, the relative viability ([2]; 0.253 µM) was 1.08, the relative viability ([2]; 0.8 µM) was 1.02 and the relative viability ([2]; 2.53 µM) was 1.03. It also gave a relative viability ([2]; 8 µM) of 0.982, a relative viability ([3]; 0.04 µM) of 0.933 and a relative viability ([3]; 0.1265 µM) of 0.914. For the same cell line, the relative viability ([3]; 0.4 µM) was 0.685, the relative viability ([3]; 1.265 µM) was 0.238 and the relative viability ([3]; 4 µM) was 0.209.
Cell Line EMC-BAC-2 has a relative viability ([1]; 0.08 µM) of 1.05, a relative viability ([1]; 0.253 µM) of 0.942 and a relative viability ([1]; 0.8 µM) of 1.16. It also gave a relative viability ([1]; 2.53 µM) of 1.2, a relative viability ([1]; 8 µM) of 0.855 and a relative viability ([2]; 0.08 µM) of 0.978. It also gave a relative viability ([2]; 0.253 µM) of 0.965, a relative viability ([2]; 0.8 µM) of 0.984 and a relative viability ([2]; 2.53 µM) of 0.989. For the same cell line, the relative viability ([2]; 8 µM) was 1.16, the relative viability ([3]; 0.04 µM) was 0.876 and the relative viability ([3]; 0.1265 µM) was 0.906. The relative viability ([3]; 0.4 µM) was 0.359, the relative viability ([3]; 1.265 µM) was 0.243 and the relative viability ([3]; 4 µM) was 0.257.
Cell Line EPLC-272H has a relative viability ([1]; 0.08 µM) of 1.2, a relative viability ([1]; 0.253 µM) of 1.11 and a relative viability ([1]; 0.8 µM) of 1.07. It also gave a relative viability ([1]; 2.53 µM) of 0.924, a relative viability ([1]; 8 µM) of 0.919 and a relative viability ([2]; 0.08 µM) of 1.1. The relative viability ([2]; 0.253 µM) was 1.01, the relative viability ([2]; 0.8 µM) was 0.936 and the relative viability ([2]; 2.53 µM) was 1.08. It also gave a relative viability ([2]; 8 µM) of 1.04, a relative viability ([3]; 0.04 µM) of 0.873 and a relative viability ([3]; 0.1265 µM) of 0.637. The relative viability ([3]; 0.4 µM) was 0.0627, the relative viability ([3]; 1.265 µM) was 0.119 and the relative viability ([3]; 4 µM) was 0.173.
With H3255 the relative viability ([1]; 0.08 µM) was 0.979, the relative viability ([1]; 0.253 µM) was 1.11 and the relative viability ([1]; 0.8 µM) was 1.01. The relative viability ([1]; 2.53 µM) was 0.939, the relative viability ([1]; 8 µM) was 0.784 and the relative viability ([2]; 0.08 µM) was 1.04. For the same cell line, the relative viability ([2]; 0.253 µM) was 1.01, the relative viability ([2]; 0.8 µM) was 0.993 and the relative viability ([2]; 2.53 µM) was 1.06. The relative viability ([2]; 8 µM) was 0.963, the relative viability ([3]; 0.04 µM) was 0.825 and the relative viability ([3]; 0.1265 µM) was 0.721. It also gave a relative viability ([3]; 0.4 µM) of 0.391, a relative viability ([3]; 1.265 µM) of 0.246 and a relative viability ([3]; 4 µM) of 0.328.
In the case of HARA, the relative viability ([1]; 0.08 µM) is reported as 1.02, the relative viability ([1]; 0.253 µM) is reported as 0.937 and the relative viability ([1]; 0.8 µM) is reported as 0.932. It also gave a relative viability ([1]; 2.53 µM) of 0.921, a relative viability ([1]; 8 µM) of 0.944 and a relative viability ([2]; 0.08 µM) of 1.07. It also gave a relative viability ([2]; 0.253 µM) of 0.936, a relative viability ([2]; 0.8 µM) of 0.931 and a relative viability ([2]; 2.53 µM) of 0.855. The relative viability ([2]; 8 µM) was 0.756, the relative viability ([3]; 0.04 µM) was 0.855 and the relative viability ([3]; 0.1265 µM) was 0.834. The relative viability ([3]; 0.4 µM) was 0.412, the relative viability ([3]; 1.265 µM) was 0.103 and the relative viability ([3]; 4 µM) was 0.127.
In the case of HCC-15, the relative viability ([1]; 0.08 µM) is reported as 1.03, the relative viability ([1]; 0.253 µM) is reported as 1.05 and the relative viability ([1]; 0.8 µM) is reported as 0.964. For the same cell line, the relative viability ([1]; 2.53 µM) was 0.94, the relative viability ([1]; 8 µM) was 0.864 and the relative viability ([2]; 0.08 µM) was 1.07. The relative viability ([2]; 0.253 µM) was 1.03, the relative viability ([2]; 0.8 µM) was 0.988 and the relative viability ([2]; 2.53 µM) was 1.01. For the same cell line, the relative viability ([2]; 8 µM) was 0.909, the relative viability ([3]; 0.04 µM) was 0.62 and the relative viability ([3]; 0.1265 µM) was 0.483. For the same cell line, the relative viability ([3]; 0.4 µM) was 0.158, the relative viability ([3]; 1.265 µM) was 0.0986 and the relative viability ([3]; 4 µM) was 0.103.
HCC-44 was tested, and the relative viability ([1]; 0.08 µM) was 1.04, the relative viability ([1]; 0.253 µM) was 0.92 and the relative viability ([1]; 0.8 µM) was 0.949. For the same cell line, the relative viability ([1]; 2.53 µM) was 0.915, the relative viability ([1]; 8 µM) was 0.723 and the relative viability ([2]; 0.08 µM) was 1.03. It also gave a relative viability ([2]; 0.253 µM) of 1, a relative viability ([2]; 0.8 µM) of 1.01 and a relative viability ([2]; 2.53 µM) of 0.869. It also gave a relative viability ([2]; 8 µM) of 1.05, a relative viability ([3]; 0.04 µM) of 0.635 and a relative viability ([3]; 0.1265 µM) of 0.683. For the same cell line, the relative viability ([3]; 0.4 µM) was 0.219, the relative viability ([3]; 1.265 µM) was 0.217 and the relative viability ([3]; 4 µM) was 0.225.
HCC-78 was tested, and the relative viability ([1]; 0.08 µM) was 1.09, the relative viability ([1]; 0.253 µM) was 0.982 and the relative viability ([1]; 0.8 µM) was 1.02. It also gave a relative viability ([1]; 2.53 µM) of 0.927, a relative viability ([1]; 8 µM) of 0.905 and a relative viability ([2]; 0.08 µM) of 0.984. The relative viability ([2]; 0.253 µM) was 1.06, the relative viability ([2]; 0.8 µM) was 1 and the relative viability ([2]; 2.53 µM) was 0.976. For the same cell line, the relative viability ([2]; 8 µM) was 0.904, the relative viability ([3]; 0.04 µM) was 0.968 and the relative viability ([3]; 0.1265 µM) was 0.771. For the same cell line, the relative viability ([3]; 0.4 µM) was 0.849, the relative viability ([3]; 1.265 µM) was 0.323 and the relative viability ([3]; 4 µM) was 0.265.
Cell Line HCC-366 has a relative viability ([1]; 0.08 µM) of 1.04, a relative viability ([1]; 0.253 µM) of 0.974 and a relative viability ([1]; 0.8 µM) of 1.03. The relative viability ([1]; 2.53 µM) was 1.02, the relative viability ([1]; 8 µM) was 0.95 and the relative viability ([2]; 0.08 µM) was 1.12. The relative viability ([2]; 0.253 µM) was 1.03, the relative viability ([2]; 0.8 µM) was 1.02 and the relative viability ([2]; 2.53 µM) was 1.01. The relative viability ([2]; 8 µM) was 1, the relative viability ([3]; 0.04 µM) was 1.05 and the relative viability ([3]; 0.1265 µM) was 1.02. It also gave a relative viability ([3]; 0.4 µM) of 0.674, a relative viability ([3]; 1.265 µM) of 0.228 and a relative viability ([3]; 4 µM) of 0.0735.
HCC-827 was tested, and the relative viability ([1]; 0.08 µM) was 1.09, the relative viability ([1]; 0.253 µM) was 1.01 and the relative viability ([1]; 0.8 µM) was 1.01. The relative viability ([1]; 2.53 µM) was 1.01, the relative viability ([1]; 8 µM) was 0.983 and the relative viability ([2]; 0.08 µM) was 1.05. For the same cell line, the relative viability ([2]; 0.253 µM) was 1.06, the relative viability ([2]; 0.8 µM) was 1.01 and the relative viability ([2]; 2.53 µM) was 1.01. For the same cell line, the relative viability ([2]; 8 µM) was 0.993, the relative viability ([3]; 0.04 µM) was 0.972 and the relative viability ([3]; 0.1265 µM) was 0.852. For the same cell line, the relative viability ([3]; 0.4 µM) was 0.704, the relative viability ([3]; 1.265 µM) was 0.253 and the relative viability ([3]; 4 µM) was 0.183.
HOP-62 showed a relative viability ([1]; 0.08 µM) of 1.03, a relative viability ([1]; 0.253 µM) of 1.03 and a relative viability ([1]; 0.8 µM) of 1.06. It also gave a relative viability ([1]; 2.53 µM) of 0.981, a relative viability ([1]; 8 µM) of 0.833 and a relative viability ([2]; 0.08 µM) of 1.01. It also gave a relative viability ([2]; 0.253 µM) of 1.02, a relative viability ([2]; 0.8 µM) of 1.03 and a relative viability ([2]; 2.53 µM) of 0.968. It also gave a relative viability ([2]; 8 µM) of 0.973, a relative viability ([3]; 0.04 µM) of 0.814 and a relative viability ([3]; 0.1265 µM) of 0.74. It also gave a relative viability ([3]; 0.4 µM) of 0.226, a relative viability ([3]; 1.265 µM) of 0.067 and a relative viability ([3]; 4 µM) of 0.101.
